From patent US20230340011A1 (Asteroid Therapeutics, priority 2022, published 2023)

Biological target: LXRβ (Homo sapiens (Human), UniProt P55055)
Test: In vitro assay LXRβ: PathHunter NHR CHO cells, LXRβ / Steroid Receptor Co-activator Peptide enzyme fragment complementation
Format: cell-based
Settings: PathHunter NHR CHO cells, full-length human LXRβ and SRCP, chemiluminescent signal; read-out: LXRβ PPI
In short: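 Co-activator recruitment measured by chemiluminescence after signal generation. The CHO line carries full-length human LXRβ tagged with ProLink and an SRCP–enzyme acceptor fusion in the nucleus; cells sat overnight at 37° C before testing, in charcoal-dextran filtered serum medium with 1% final vehicle.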

LXRβ, sequence (P55055 whole entry, the tested form may be a part): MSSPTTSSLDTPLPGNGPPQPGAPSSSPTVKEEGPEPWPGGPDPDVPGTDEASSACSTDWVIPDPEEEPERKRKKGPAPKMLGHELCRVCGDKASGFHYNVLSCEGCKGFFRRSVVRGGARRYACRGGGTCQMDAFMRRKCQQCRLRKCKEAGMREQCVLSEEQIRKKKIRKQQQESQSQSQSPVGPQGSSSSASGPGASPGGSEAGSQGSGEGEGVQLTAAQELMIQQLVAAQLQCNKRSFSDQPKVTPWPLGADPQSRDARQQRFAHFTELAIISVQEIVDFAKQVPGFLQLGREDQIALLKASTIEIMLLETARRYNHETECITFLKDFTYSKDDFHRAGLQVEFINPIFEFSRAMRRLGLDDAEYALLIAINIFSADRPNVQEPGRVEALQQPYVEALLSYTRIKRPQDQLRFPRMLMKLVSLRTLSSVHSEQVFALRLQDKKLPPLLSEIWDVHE

With C[C@H](CCC(=O)N1CCC(Oc2cccnc2)CC1)[C@H]1CC[C@H]2[C@@H]3CC=C4C[C@@H](O)CC[C@]4(C)[C@H]3CC[C@]12C [Example 219, (R)-4-((3S,8S,9S,10R,13R,14S,17R)-3-hydroxy-10,13-dimethyl-2,3,4,7,8,9,10,11,12,13,14,15,16,17-tetradecahydro-1H-cyclopenta[a]phenanthren-17-yl)-1-(4-(pyridin-3-yloxy)piperidin-1-yl)pentan-1-one] as the compound, how does the EC50 read?
The EC50 was greater than 10 µM.

For C[C@@H]1CCN(C(=O)CC[C@@H](C)[C@H]2CC[C@H]3[C@@H]4CC=C5C[C@@H](O)CC[C@]5(C)[C@H]4CC[C@]23C)O1 [Example 59, (R)-4-((3S,8S,9S,10R,13R,14S,17R)-3-hydroxy-10,13-dimethyl-2,3,4,7,8,9,10,11,12,13,14,15,16,17-tetradecahydro-1H-cyclopenta[a]phenanthren-17-yl)-1-((R)-5-methylisoxazolidin-2-yl)pentan-1-one], which EC50 is on record?
Its EC50 is 0.25 to 1 µM.

Which EC50 does the source give for C[C@H](CCC(=O)N1CCC[C@H](Oc2ccncn2)C1)[C@H]1CC[C@H]2[C@@H]3CC=C4C[C@@H](O)CC[C@]4(C)[C@H]3CC[C@]12C [Example 218, (R)-4-((3S,8S,9S,10R,13R,14S,17R)-3-hydroxy-10,13-dimethyl-2,3,4,7,8,9,10,11,12,13,14,15,16,17-tetradecahydro-1H-cyclopenta[a]phenanthren-17-yl)-1-((S)-3-(pyrimidin-4-yloxy)piperidin-1-yl)pentan-1-one] here?
The EC50 was 0.25 to 1 µM.

For CNS(=O)(=O)C1CCN(C(=O)CC[C@@H](C)[C@H]2CC[C@H]3[C@@H]4CC=C5C[C@@H](O)CC[C@]5(C)[C@H]4CC[C@]23C)CC1 [Example 291, 1-[(4R)-4-[(1R,3aS,3bS,7S,9aR,9bS,11aR)-7-hydroxy-9a,11a-dimethyl-1H,2H,3H,3aH,3bH,4H,6H,7H,8H,9H,9aH,9bH,10H,11H,11aH-cyclopenta[a]phenanthren-1-yl]pentanoyl]-N-methylpiperidine-4-sulfonamide], which EC50 is on record?
Its EC50 is greater than 10 µM.

Which EC50 does the source give for CNC(=O)C(=O)O[C@@H](C)[C@H]1CC[C@H]2[C@@H]3CC=C4C[C@@H](O)CC[C@]4(C)[C@H]3CC[C@]12C [Example 145, (S)-1-((3S,8S,9S,10R,13S,14S,17S)-3-hydroxy-10,13-dimethyl-2,3,4,7,8,9,10,11,12,13,14,15,16,17-tetradecahydro-1H-cyclopenta[a]phenanthren-17-yl)ethyl 2-(methylamino)-2-oxoacetate] here?
The EC50 was greater than 10 µM.

Which EC50 does the source give for C[C@H](CCC(=O)N1CCN(C(=O)C2CC2)CC1)[C@H]1CC[C@H]2[C@@H]3CC=C4C[C@@H](O)CC[C@]4(C)[C@H]3CC[C@]12C [Example 314, (4R)-4-[(1R,3aS,3bS,7S,9aR,9bS,11aR)-7-hydroxy-9a,11a-dimethyl-1H,2H,3H,3aH,3bH,4H,6H,7H,8H,9H,9aH,9bH,10H,11H,11aH-cyclopenta[a]phenanthren-1-yl]-1-(4-cyclopropanecarbonylpiperazin-1-yl)pentan-1-one] here?
Its EC50 is greater than 10 µM.

How did the EC50 turn out when CCN(OC)C(=O)CC[C@@H](C)[C@H]1CC[C@H]2[C@@H]3CC=C4C[C@@H](O)CC[C@]4(C)[C@H]3CC[C@]12C [Example 11, (R)—N-ethyl-4-((3S,8S,9S,10R,13R,14S,17R)-3-hydroxy-10,13-dimethyl-2,3,4,7,8,9,10,11,12,13,14,15,16,17-tetradecahydro-1H-cyclopenta[a]phenanthren-17-yl)-N-methoxypentanamide] was run?
The EC50 was 0.25 to 1 µM.

With C[C@H](CCC(=O)N(C)OCCCO)[C@H]1CC[C@H]2[C@@H]3CC=C4C[C@@H](O)CC[C@]4(C)[C@H]3CC[C@]12C [Example 30, (R)-4-((3S,8S,9S,10R,13R,14S,17R)-3-hydroxy-10,13-dimethyl-2,3,4,7,8,9,10,11,12,13,14,15,16,17-tetradecahydro-1H-cyclopenta[a]phenanthren-17-yl)-N-(3-hydroxypropoxy)-N-methylpentanamide] as the compound, how does the EC50 read?
Its EC50 is 1 to 10 µM.

With CC(=O)N1CCN(C(=O)CC[C@@H](C)[C@H]2CC[C@H]3[C@@H]4CC=C5C[C@@H](O)CC[C@]5(C)[C@H]4CC[C@]23C)[C@@H](C)C1 [Example 276, (4R)-4-[(1R,3aS,3bS,7S,9aR,9bS,11aR)-7-hydroxy-9a,11a-dimethyl-1H,2H,3H,3aH,3bH,4H,6H,7H,8H,9H,9aH,9bH,10H,11H,11aH-cyclopenta[a]phenanthren-1-yl]-1-[(2S)-4-acetyl-2-methylpiperazin-1-yl]pentan-1-one] as the compound, how does the EC50 read?
Its EC50 is greater than 10 µM.

CC(=O)N1CCN(C(=O)CC[C@@H](C)[C@H]2CC[C@H]3[C@@H]4CC=C5C[C@@H](O)CC[C@]5(C)[C@H]4CC[C@]23C)C[C@@H]1C [Example 427, (R)-1-((S)-4-acetyl-3-methylpiperazin-1-yl)-4-((3S,8S,9S,10R,13R,14S,17R)-3-hydroxy-10,13-dimethyl-2,3,4,7,8,9,10,11,12,13,14,15,16,17-tetradecahydro-1H-cyclopenta[a]phenanthren-17-yl)pentan-1-one] was tested. Which EC50 did it give?
The EC50 was greater than 10 µM.

With C[C@H](CCC(=O)N1OCC[C@@H]1C)[C@H]1CC[C@H]2[C@@H]3CC=C4C[C@@H](O)CC[C@]4(C)[C@H]3CC[C@]12C [Example 57, (R)-4-((3S,8S,9S,10R,13R,14S,17R)-3-hydroxy-10,13-dimethyl-2,3,4,7,8,9,10,11,12,13,14,15,16,17-tetradecahydro-1H-cyclopenta[a]phenanthren-17-yl)-1-((S)-3-methylisoxazolidin-2-yl)pentan-1-one] as the compound, how does the EC50 read?
Its EC50 is 0.25 to 1 µM.

C[C@H](CCC(=O)N1CCC(OC(F)F)CC1)[C@H]1CC[C@H]2[C@@H]3CC=C4C[C@@H](O)CC[C@]4(C)[C@H]3CC[C@]12C [Example 252, (R)-1-(4-(difluoromethoxy)piperidin-1-yl)-4-((3S,8S,9S,10R,13R,14S,17R)-3-hydroxy-10,13-dimethyl-2,3,4,7,8,9,10,11,12,13,14,15,16,17-tetradecahydro-1H-cyclopenta[a]phenanthren-17-yl)pentan-1-one] was tested. Which EC50 did it give?
The EC50 was greater than 10 µM.

For CC(NS(C)(=O)=O)C1CCN(C(=O)CC[C@@H](C)[C@H]2CC[C@H]3[C@@H]4CC=C5C[C@@H](O)CC[C@]5(C)[C@H]4CC[C@]23C)CC1 (stereo partly drawn) [Example 475, N-(1-(1-((R)-4-((3S,8S,9S,10R,13R,14S,17R)-3-hydroxy-10,13-dimethyl-2,3,4,7,8,9,10,11,12,13,14,15,16,17-tetradecahydro-1H-cyclopenta[a]phenanthren-17-yl)pentanoyl)piperidin-4-yl)ethyl)methanesulfonamide], which EC50 is on record?
Its EC50 is greater than 10 µM.

For C[C@H](OC(=O)C(N)=O)[C@H]1CC[C@H]2[C@@H]3CC=C4C[C@@H](O)CC[C@]4(C)[C@H]3CC[C@]12C [Example 144, (S)-1-((3S,8S,9S,10R,13S,14S,17S)-3-hydroxy-10,13-dimethyl-2,3,4,7,8,9,10,11,12,13,14,15,16,17-tetradecahydro-1H-cyclopenta[a]phenanthren-17-yl)ethyl 2-amino-2-oxoacetate], which EC50 is on record?
Its EC50 is greater than 10 µM.

With COCCCON(C)C(=O)CC[C@@H](C)[C@H]1CC[C@H]2[C@@H]3CC=C4C[C@@H](O)CC[C@]4(C)[C@H]3CC[C@]12C [Example 31, (R)-4-((3S,8S,9S,10R,13R,14S,17R)-3-hydroxy-10,13-dimethyl-2,3,4,7,8,9,10,11,12,13,14,15,16,17-tetradecahydro-1H-cyclopenta[a]phenanthren-17-yl)-N-(3-methoxypropoxy)-N-methylpentanamide] as the compound, how does the EC50 read?
The EC50 was 1 to 10 µM.

How did the EC50 turn out when C[C@H](CCC(=O)N1CCC[C@@H](Oc2ccncn2)C1)[C@H]1CC[C@H]2[C@@H]3CC=C4C[C@@H](O)CC[C@]4(C)[C@H]3CC[C@]12C [Example 217, (4R)-4-[(1R,3aS,3bS,7S,9aR,9bS,11aR)-7-hydroxy-9a,11a-dimethyl-1H,2H,3H,3aH,3bH,4H,6H,7H,8H,9H,9aH,9bH,10H,11H,11aH-cyclopenta[a]phenanthren-1-yl]-1-[(3R)-3-(pyrimidin-4-yloxy)piperidin-1-yl]pentan-1-one] was run?
Its EC50 is greater than 10 µM.

Which EC50 does the source give for CC(=O)N1CCN(C(=O)CC[C@@H](C)[C@H]2CC[C@H]3[C@@H]4CC=C5C[C@@H](O)CC[C@]5(C)[C@H]4CC[C@]23C)[C@H](C)C1 [Example 275, (4R)-4-[(1R,3aS,3bS,7S,9aR,9bS,11aR)-7-hydroxy-9a,11a-dimethyl-1H,2H,3H,3aH,3bH,4H,6H,7H,8H,9H,9aH,9bH,10H,11H,11aH-cyclopenta[a]phenanthren-1-yl]-1-[(2R)-4-acetyl-2-methylpiperazin-1-yl]pentan-1-one] here?
Its EC50 is greater than 10 µM.

CCCCN(OC)C(=O)CC[C@@H](C)[C@H]1CC[C@H]2[C@@H]3CC=C4C[C@@H](O)CC[C@]4(C)[C@H]3CC[C@]12C [Example 17, (R)—N-butyl-4-((3S,8S,9S,10R,13R,14S,17R)-3-hydroxy-10,13-dimethyl-2,3,4,7,8,9,10,11,12,13,14,15,16,17-tetradecahydro-1H-cyclopenta[a]phenanthren-17-yl)-N-methoxypentanamide] was tested. Which EC50 did it give?
Its EC50 is 1 to 10 µM.

How did the EC50 turn out when C[C@H](CCC(=O)N(C)CCc1ccccn1)[C@H]1CC[C@H]2[C@@H]3CC=C4C[C@@H](O)CC[C@]4(C)[C@H]3CC[C@]12C [Example 293, (4R)-4-[(1R,3aS,3bS,7S,9aR,9bS,11aR)-7-hydroxy-9a,11a-dimethyl-1H,2H,3H,3aH,3bH,4H,6H,7H,8H,9H,9aH,9bH,10H,11H,11aH-cyclopenta[a]phenanthren-1-yl]-N-methyl-N-[2-(pyridin-2-yl)ethyl]pentanamide] was run?
Its EC50 is 0.25 to 1 µM.

Which EC50 does the source give for C[C@H](CCc1ccnnc1)[C@H]1CC[C@H]2[C@@H]3CC=C4C[C@@H](O)CC[C@]4(C)[C@H]3CC[C@]12C [Example 170, (1R,3aS,3bS,7S,9aR,9bS,11aR)-9a,11a-dimethyl-1-[(2R)-4-(pyridazin-4-yl)butan-2-yl]-1H,2H,3H,3aH,3bH,4H,6H,7H,8H,9H,9aH,9bH,10H,11H,11aH-cyclopenta[a]phenanthren-7-ol] here?
The EC50 was greater than 10 µM.
